Results as given in PubChem BioAssay AID624145 (Sanford-Burnham Center for Chemical Genomics, 2012).
Active and inactive are the calls of the source.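 How the source made its calls: active means EC50 at or below 20 µM; inactive means the rest.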

Each molecule was assayed on hiPSC single-cell survival, DAPI nuclei count imaging (assay: enhancers of single-cell hiPSC survival, dose response, imaging, fluorescence imaging, uHTS hits (AID 624145)).

| Structure (SMILES) | EC50 |
| --- | --- |
| O=C(Nc1ccncc1)c1c(F)cccc1F | 13.6 µM |
| C=C1C(=O)O[C@@H]2C[C@@H](C)[C@@H]3C=CC(=O)[C@@]3(C)[C@@H](O)[C@H]12 | > 80 µM (inactive) |
| CC1C/C(=C/c2ccncc2)C(=O)/C(=C/c2ccncc2)C1 (stereo not drawn) | > 80 µM (inactive) |
| O=C(Nc1nc(-c2ccncc2)cs1)C1COc2ccccc2O1 (stereo not drawn) | 1.86 µM |
| CC(OC(=O)c1ccc2c(=O)n3c(nc2c1)CCC3)C(=O)Nc1ccc(C(N)=O)cc1 (stereo not drawn) | 28.4 µM (inactive) |
| CN(C(=O)COC(=O)c1nc(Cl)c(Cl)c(Cl)c1Cl)C1CCS(=O)(=O)C1 (stereo not drawn) | > 80 µM (inactive) |
| CN1C2CCC1/C(=C/c1ccccn1)C(=O)/C2=C\c1ccccn1 | > 80 µM (inactive) |
| O=C(Nc1ccncc1)c1cc(S(=O)(=O)N2CCCC2)ccc1Cl | 13.6 µM |
| COc1ccccc1Sc1nc(-c2ccccn2)ncc1OC | 45.7 µM (inactive) |
| O=C(COc1ccccc1)Nc1nc(-c2ccncc2)cs1 | 29.3 µM (inactive) |
| CN(Cc1ccc(C(F)(F)F)cc1)C(=O)[C@H]1O[C@@H](n2cnc3c(N)ncnc32)[C@H](O)[C@@H]1O | 20.8 µM (inactive) |
| C=C1C(C)C2C(Cc3ccccc3)NC(=O)C23OC(=O)/C=C/C(O)CCCC(C)C/C=C/C3C1O (stereo not drawn) | 12.5 µM |
| O=C(Nc1ccncc1)c1ccccc1[N+](=O)[O-] | 33.4 µM (inactive) |
| CC(Oc1ccccc1)C(=O)Nc1nc(-c2ccncc2)cs1 (stereo not drawn) | 42.9 µM (inactive) |
| c1ccc(CN2CCN(c3nc(NCc4ccco4)c4ccccc4n3)CC2)cc1 | 5.81 µM |
| O=C(NCc1ccccc1)c1ccc(-c2cn[nH]c2)c2ccoc12 | 1.1 µM |
| CC(OC(=O)c1ccc(S(=O)(=O)N2CCCCC2)cc1)C(=O)Nc1ccc(C(N)=O)cc1 (stereo not drawn) | 10.5 µM |
| C=C1C(=O)OC2CC(C)C3C=CC(=O)C3(C)C(O)C12 (stereo not drawn) | > 80 µM (inactive) |
| O=C(Nc1ccncc1)c1cc(S(=O)(=O)N2CCOCC2)ccc1Cl | 13.8 µM |
| O=C(NCC1CC1)c1ccc(-c2cn[nH]c2)c2ccoc12 | 14.2 µM |
| O=C(Nc1ccncc1)c1ccccc1F | 28.2 µM (inactive) |
| N#C/C(=C/c1cccc([N+](=O)[O-])c1)c1nnc2n1CCCCC2 | > 80 µM (inactive) |
| O=C(C(O)c1ccc(Br)cc1)N1CCC(Nc2ccc3[nH]ncc3c2)CC1 (stereo not drawn) | 5.88 µM |
| COc1ccc2c(c1)c(=O)c(C(=O)c1ccc(Cl)cc1)cn2CC(=O)Nc1ccc(F)cc1 | 18.6 µM |
| O=C(Nc1ccncc1)c1c(F)c(F)c(F)c(F)c1F | 5.46 µM |
| CCOCCCNC(=O)/C(C#N)=C/c1ccc([N+](=O)[O-])o1 | > 80 µM (inactive) |
| CCCSc1nc(N2CCOCC2)c2c(c1C#N)CC(C)(C)SC2 | > 80 µM (inactive) |

| Structure (SMILES) | EC50 |
| --- | --- |
| NC(=O)c1ccc(NC(=O)CCC(=O)c2cccs2)cc1 | 7.14 µM |
| CN1C/C(=C/c2cccnc2)C(=O)/C(=C/c2cccnc2)C1 | > 80 µM (inactive) |
| CC(OC(=O)c1cccc(S(=O)(=O)N2CCN(C)CC2)c1)C(=O)Nc1ccc(C(N)=O)cc1 (stereo not drawn) | 35.6 µM (inactive) |
| CN1Cc2cnnn2-c2ccccc2C1C#N (stereo not drawn) | 26.5 µM (inactive) |
| CC1(C)Cc2c(C#N)c(NCC3CCCO3)nc(-c3ccco3)c2CO1 (stereo not drawn) | 42.8 µM (inactive) |
| CCC(C(=O)Nc1ccc2[nH]ncc2c1)c1ccccc1 (stereo not drawn) | 6.49 µM |
| O=C(Cc1ccc(Br)cc1)Nc1ccc2[nH]ncc2c1 | 19.1 µM |
| C=C(C)[C@@]12OC3(c4ccccc4)O[C@@H]1C1[C@@H]4O[C@]4(CO)[C@@H](O)[C@]4(O)C(=O)C(C)=C[C@H]4[C@@]1(O3)[C@H](C)[C@H]2OC(=O)/C=C/C=C/c1ccccc1 (stereo partly drawn) | > 80 µM (inactive) |
| CCN1C/C(=C\c2cccc([N+](=O)[O-])c2)C(=O)/C(=C/c2cccc([N+](=O)[O-])c2)C1 | > 80 µM (inactive) |
| CC(C)(C)NC(=O)Cn1nnc(-c2ccccc2NC(=O)c2cnccn2)n1 | > 80 µM (inactive) |
| O=c1c(Cl)c(Cl)cnn1Cc1nnc(-c2ccccc2Br)o1 | > 80 µM (inactive) |
| CCCNC(=O)COC(=O)c1ccccc1C(=O)c1ccc(Cl)c([N+](=O)[O-])c1 | > 80 µM (inactive) |
| COC(=O)CCSc1cc([N+](=O)[O-])cc2c1c(C1OCCS1)nn2-c1ccccc1 (stereo not drawn) | > 80 µM (inactive) |
| CCCCCCC[C@@H](C/C=C/CCC(=O)N(C)C/C(=C/Cl)C/C(=C\C(=O)N1CC(OC)=CC1=O)OC)OC | 0.525 µM |
| CNc1cc(Cl)c2nonc2c1[N+](=O)[O-] | > 80 µM (inactive) |
| CCn1c(Cl)c(C=O)s/c1=N\S(=O)(=O)c1ccccc1 | > 80 µM (inactive) |
| O=S(=O)(c1cccc2cnccc12)N1CCNCC1 | 2.05 µM |
| C=C1C(C)C2C(Cc3ccccc3)NC(=O)C23C(OC(C)=O)C=CC(C)(O)CC(C)CC=CC3C1O (stereo not drawn) | > 80 µM (inactive) |
| C=C1[C@@H](C)[C@H]2[C@H](Cc3ccccc3)NC(=O)[C@]23OC(=O)/C=C/[C@H](O)CCC[C@@H](C)C/C=C/[C@H]3[C@@H]1O | 12.5 µM |
| CCN1C/C(=C/c2cccc([N+](=O)[O-])c2)C(=O)/C(=C/c2cccc([N+](=O)[O-])c2)C1 | > 80 µM (inactive) |
| O=C1/C(=C/c2ccncc2)CCC/C1=C\c1ccncc1 | > 80 µM (inactive) |
| Cc1c(C(=O)OCC(=O)Nc2ccc(C(N)=O)cc2)cccc1[N+](=O)[O-] | > 80 µM (inactive) |
| CCCCn1c(=O)[nH]c(=O)c2c1nc(Cn1ncc(Cl)c(Cl)c1=O)n2CCC | > 80 µM (inactive) |
| Cc1nnc2n(C3CCCCC3)c(=O)c3c4c(sc3n12)COC(C)(C)C4 | > 80 µM (inactive) |
| CC1(C)Cc2c(C#N)c(SCC(=O)c3ccccc3)nc(N3CCOCC3)c2CS1 | 39.3 µM (inactive) |
| COCCNC(=O)c1ccc(-c2cn[nH]c2)c2ccoc12 | 19.2 µM |
